System: green peach apid (Myzus persicae)
Experiment: Myzus test (cabbage leaves dipped)
Assay type: in vivo
Settings: after 6 days; active compound concentration 0.1%
Procedure: Solvent: 7 parts by weight of dimethylformamide
Emulsifier: 1 part by weight of alkylaryl polyglycol ether
To produce a suitable preparation of active compound, 1 part by weight of active compound is mixed with the stated amount of solvent and the stated amount of emulsifier, and the concentrate is diluted with water to the desired concentration.
Cabbage leaves (Brassica oleracea) which are severely infested with the green peach apid (Myzus persicae) are treated by being dipped into the preparation of active compound of the desired concentration.
After the specified periods of time, the destruction in % is determined. 100% means that all the aphids have been killed; 0% means that none of the aphids have been killed.

| Structure (SMILES) | destruction rate |
| --- | --- |
| Cc1cc(C)c(C2=C(O)C3(CCCCC3)NC2=O)c(C)c1 [(A)] | no destruction |
| CC(C)C(=O)OC1=C(c2ccc(Cl)cc2Cl)C(=O)NC12CCCCC2 [(B)] | 20% |

— patent US6774133B2, “Substituted spiroheterocyclic 1H-3-aryl-pyrrolidine-2,4-dione derivatives, processes for their preparation, and their use as pesticides” (Bayer Aktiengesellschaft, priority 1993, dated 2004)
